According to ChEMBL document CHEMBL5518186, “Discovery of the cereblon-recruiting tubulin PROTACs effective in overcoming Taxol resistance in vitro and in vivo” (Eur J Med Chem, 2024):
Active and inactive are the calls of the source. The rule behind the calls is not given here.

Assays:
[1] = tested on: MCF7; test: Antiproliferative activity against human MCF7 cells incubated for 72 hrs; format: functional, cell-based; details: MCF7, 72 h
[2] = tested on: A549; test: Antiproliferative activity against human A549 cells incubated for 72 hrs; format: functional, cell-based; details: A549, 72 h
[3] = tested on: HepG2; test: Antiproliferative activity against human HepG2 cells incubated for 72 hrs; format: functional, cell-based; details: HepG2, 72 h
[4] = tested on: U-937; test: Antiproliferative activity against human U-937 cells incubated for 72 hrs; format: functional, cell-based; details: U-937, 72 h
[5] = biological target: T1, Protein cereblon/Tubulin beta (Homo sapiens) (UniProt P68371+Q9H4B7+Q13509+P04350+Q3ZCM7+P07437+Q13885+Q9BVA1+Q9BUF5+Q96SW2+A6NNZ2); test: Protac activity at CRBN/beta-tubulin in human A549 cells assessed as reduction in beta-tubulin level at 0.01 to 1 uM incubated for 48 hrs by immunoblotting analysis; format: cell-based; details: dose 0.01-1 µM
[6] = biological target: T2, Protein cereblon/Tubulin beta-3 chain (Homo sapiens, UniProt Q13509+Q96SW2); test: Protac activity at CRBN/beta3-tubulin in human A549 cells assessed as reduction in beta3-tubulin level incubated for 48 hrs by immunoblotting analysis; format: cell-based
[7] = biological target: T2, Protein cereblon/Tubulin beta-3 chain; test: Protac activity at CRBN/beta3-tubulin in human HeLa cells assessed as reduction in beta3-tubulin level at 10 to 1000 nM incubated for 48 hrs by immunoblotting analysis; format: cell-based; details: dose 10-1000 nM
Target sequence in this assay (Q13509 whole entry, looked up): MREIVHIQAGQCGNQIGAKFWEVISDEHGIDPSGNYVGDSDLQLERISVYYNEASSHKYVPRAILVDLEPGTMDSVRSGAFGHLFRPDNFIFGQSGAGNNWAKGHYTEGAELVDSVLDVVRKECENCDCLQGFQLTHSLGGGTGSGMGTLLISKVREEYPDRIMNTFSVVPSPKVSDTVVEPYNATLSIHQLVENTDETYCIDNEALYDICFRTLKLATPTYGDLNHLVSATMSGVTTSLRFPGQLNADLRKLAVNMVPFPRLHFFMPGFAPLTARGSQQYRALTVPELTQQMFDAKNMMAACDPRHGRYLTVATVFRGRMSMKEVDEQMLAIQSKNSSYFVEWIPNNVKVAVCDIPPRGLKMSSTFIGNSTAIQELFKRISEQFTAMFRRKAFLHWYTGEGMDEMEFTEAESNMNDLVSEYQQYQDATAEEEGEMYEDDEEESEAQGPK
Target sequence in this assay (Q96SW2 whole entry, looked up): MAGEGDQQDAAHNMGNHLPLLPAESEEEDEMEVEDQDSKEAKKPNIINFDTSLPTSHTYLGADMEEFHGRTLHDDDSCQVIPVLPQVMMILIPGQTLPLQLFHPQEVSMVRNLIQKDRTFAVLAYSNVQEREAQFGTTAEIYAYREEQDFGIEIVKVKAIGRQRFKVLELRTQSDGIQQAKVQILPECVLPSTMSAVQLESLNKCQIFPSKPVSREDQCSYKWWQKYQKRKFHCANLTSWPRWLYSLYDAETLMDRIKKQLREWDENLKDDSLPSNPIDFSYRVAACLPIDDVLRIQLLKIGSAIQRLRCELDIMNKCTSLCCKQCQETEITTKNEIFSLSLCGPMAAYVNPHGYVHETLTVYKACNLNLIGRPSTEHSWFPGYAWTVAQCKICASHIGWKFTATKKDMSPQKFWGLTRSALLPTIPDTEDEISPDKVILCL

[8] = biological target: T2, Protein cereblon/Tubulin beta-3 chain; test: Protac activity at CRBN/beta3-tubulin in human MCF7 cells assessed as reduction in beta3-tubulin level at 10 to 1000 nM incubated for 48 hrs by immunoblotting analysis; format: cell-based; details: dose 10-1000 nM
Target sequence in this assay (Q13509 whole entry, looked up): as the sequence (Q13509 whole entry, looked up) above
Target sequence in this assay (Q96SW2 whole entry, looked up): as the sequence (Q96SW2 whole entry, looked up) above

[9] = biological target: T3, Protein cereblon-alpha tubulin (Homo sapiens) (UniProt P0DPH7+P68366+Q71U36+P68363+Q9BQE3+Q6PEY2+A6NHL2+Q9NY65+Q96SW2); test: Protac activity at CRBN/alpha-tubulin in human HepG2 cells assessed as reduction in alpha-tubulin level at 10 to 1000 nM incubated for 48 hrs by immunoblotting analysis; format: cell-based; details: dose 10-1000 nM
[10] = biological target: T1, Protein cereblon/Tubulin beta (Homo sapiens); test: Protac activity at CRBN/beta-tubulin in human HepG2 cells assessed as reduction in beta-tubulin level at 10 to 1000 nM incubated for 48 hrs by immunoblotting analysis; format: cell-based; details: dose 10-1000 nM
[11] = biological target: T1, Protein cereblon/Tubulin beta (Homo sapiens); test: Protac activity at CRBN/beta-tubulin in human MGC-803 cells assessed as reduction in beta-tubulin level at 10 to 1000 nM incubated for 48 hrs by immunoblotting analysis; format: cell-based; details: dose 10-1000 nM
[12] = biological target: T3, Protein cereblon-alpha tubulin (Homo sapiens); test: Protac activity at CRBN/alpha-tubulin in human A549 cells assessed as reduction in alpha-tubulin level at 0.25 uM by immunoblotting analysis; format: cell-based; details: time 6-72 hrs, TDE = time-dependent effect
[13] = biological target: T1, Protein cereblon/Tubulin beta (Homo sapiens); test: Protac activity at CRBN/beta-tubulin in human A549 cells assessed as reduction in beta-tubulin level at 0.25 uM by immunoblotting analysis; format: cell-based; details: time 6-72 hrs, TDE = time-dependent effect
[14] = biological target: T2, Protein cereblon/Tubulin beta-3 chain; test: Protac activity at CRBN/beta3-tubulin in human A549 cells assessed as reduction in beta3-tubulin level at 0.25 uM by immunoblotting analysis; format: cell-based; details: time 6-72 hrs, TDE = time-dependent effect
Target sequence in this assay (Q13509 whole entry, looked up): as the sequence (Q13509 whole entry, looked up) above
Target sequence in this assay (Q96SW2 whole entry, looked up): as the sequence (Q96SW2 whole entry, looked up) above

[15] = biological target: T3, Protein cereblon-alpha tubulin (Homo sapiens); test: Protac activity at CRBN/alpha-tubulin in human A549 cells assessed as reduction in alpha-tubulin level at 0.25 uM pretreated for 48 hrs followed by compound washout and measured upto 24 hrs by immunoblotting analysis; format: cell-based
[16] = biological target: T3, Protein cereblon-alpha tubulin (Homo sapiens); test: Protac activity at CRBN/alpha-tubulin in human A549 cells assessed as reduction in alpha-tubulin level at 0.25 uM pretreated with MG-132 followed by compound addition and measured after 24 hrs by immunoblotting analysis; format: cell-based
[17] = biological target: T3, Protein cereblon-alpha tubulin (Homo sapiens); test: Protac activity at CRBN/alpha-tubulin in human A549 cells assessed as reduction in alpha-tubulin level at 0.25 uM pretreated with pomalidomide for 2 hrs followed by compound addition and measured after 24 hrs by immunoblotting analysis; format: cell-based
[18] = biological target: T3, Protein cereblon-alpha tubulin (Homo sapiens); test: Protac activity at CRBN/alpha-tubulin in human A549 cells assessed as reduction in alpha-tubulin level at 0.25 uM pretreated with CA-4 for 2 hrs followed by compound addition and measured after 24 hrs by immunoblotting analysis; format: cell-based
[19] = biological target: T1, Protein cereblon/Tubulin beta (Homo sapiens); test: Protac activity at CRBN/beta-tubulin in human A549 cells assessed as reduction in beta-tubulin level at 0.25 uM pretreated with CA-4 for 2 hrs followed by compound addition and measured after 24 hrs by immunoblotting analysis; format: cell-based
[20] = biological target: T2, Protein cereblon/Tubulin beta-3 chain; test: Protac activity at CRBN/beta3-tubulin in human A549/Taxol cells assessed as reduction in beta3-tubulin level at 0.25 uM pretreated with MG-132 followed by compound addition and measured after 48 hrs by immunoblotting analysis; format: cell-based
Target sequence in this assay (Q13509 whole entry, looked up): as the sequence (Q13509 whole entry, looked up) above
Target sequence in this assay (Q96SW2 whole entry, looked up): as the sequence (Q96SW2 whole entry, looked up) above

[21] = biological target: T3, Protein cereblon-alpha tubulin (Homo sapiens); test: Protac activity at CRBN/alpha-tubulin in human A549/Taxol cells assessed as reduction in alpha-tubulin level at 0.25 uM pretreated with pomalidomide for 2 hrs followed by compound addition and measured after 48 hrs by immunoblotting analysis; format: cell-based
[22] = biological target: T2, Protein cereblon/Tubulin beta-3 chain; test: Protac activity at CRBN/beta3-tubulin in human A549/Taxol cells assessed as reduction in beta3-tubulin level at 0.25 uM pretreated with pomalidomide for 2 hrs followed by compound addition and measured after 48 hrs by immunoblotting analysis; format: cell-based
Target sequence in this assay (Q13509 whole entry, looked up): as the sequence (Q13509 whole entry, looked up) above
Target sequence in this assay (Q96SW2 whole entry, looked up): as the sequence (Q96SW2 whole entry, looked up) above

[23] = Resistance index, ratio of IC50 for human A549/Taxol cells to IC50 for human A549 cells; format: functional
[24] = tested on: HEK-293T; test: Cytotoxicity against HEK293T cells assessed as effect on cell viability at 20 uM; format: toxicity, cell-based; details: human
[25] = tested on: A549/TR; test: Inhibition of colony formation in human A549/Taxol cells incubated for 24 hrs followed by media replacement at every 3 days for 14 days by crystal violet staining based assay; format: functional, cell-based; details: dose 2-50 nM, time 14.0 day
[26] = tested on: A549; test: Induction of cell cycle arrest in human A549 cells assessed as accumulation of cells at S phase at 0.002 uM incubated for 24 hrs by PI staining based flow cytometry analysis (reference value: 1.39%); format: functional
[27] = tested on: A549; test: Induction of cell cycle arrest in human A549 cells assessed as accumulation of cells at G2/M phase at 0.05 uM incubated for 24 hrs by PI staining based flow cytometry analysis (reference value: 31.86%); format: functional
[28] = tested on: A549; test: Induction of apoptosis in human A549 cells assessed as increase in apoptotic rate at 0.002 uM incubated for 48 hrs by Annexin V-FITC/PI staining based flow cytometry analysis (reference value: 1.3%); format: functional
[29] = tested on: A549/TR; test: Induction of apoptosis in human A549/Taxol cells at 0.05 uM incubated for 48 hrs by Annexin V-FITC/PI staining based flow cytometry analysis; format: functional
[30] = tested on: A549; test: Antitumor activity against human A549 cells xenografted in nude mouse assessed as decrease in tumor volume at 15 mg/kg, ip administered once every 2 days for 23 days by Vernier caliper method; format: functional, organism-based; details: time 23.0 day
[31] = tested on: A549; test: Antitumor activity against human A549 cells xenografted in nude mouse assessed as decrease in tumor weight at 15 mg/kg, ip administered once every 2 days for 23 days by Vernier caliper method; format: functional, organism-based; details: time 23.0 day
[32] = biological target: Tubulin (Homo sapiens) (UniProt P68371+Q9H4B7+P0DPH7+P68366+Q13509+Q71U36+P04350+Q3ZCM7+P07437+P68363+Q9BQE3+Q6PEY2+Q13885+Q9BVA1+Q9BUF5); test: Inhibition of microtubule polymerization in human HepG2 cells by immunofluorescence assay; format: cell-based
[33] = tested on: HepG2; test: Induction of DNA damage in human HepG2 cells assessed as gamma-H2AX level; format: functional, cell-based
[34] = tested on: HepG2; test: Inhibition of cell invasion in human HepG2 cells; format: functional, cell-based

In the case of `COc1ccc(/C=C\c2cc(OC)c(OC)c(OC)c2)cc1OC(=O)CCCNc1cccc2c1C(=O)N(C1CCC(=O)NC1=O)C2=O` (stereo not given), the IC50 [1] is reported as 12 nM, the IC50 [2] is reported as 10 nM and the IC50 [3] is reported as 4 nM. For the same molecule, the IC50 [4] was 18 nM, the Activity [5] was “Active” and the Activity [6] was “Dose-Dependent Effect”. The DC50 [6] was 251 nM, the Activity [7] was “Active” and the Activity [8] was “Active”. For the same molecule, the Activity [9] was “Active”, the Activity [10] was “Active” and the Activity [11] was “Active”. For the same molecule, the Activity [12] was “Tde”, the Activity [13] was “Tde” and the Activity [14] was “Tde”. For the same molecule, the Activity [15] was “Active”, the Activity [16] was “inactive” and the Activity [17] was “inactive”. The Activity [18] was “inactive”, the Activity [19] was “inactive” and the Activity [20] was “inactive”. The Activity [21] was “inactive”, the Activity [22] was “inactive” and the “Ratio IC50” value [23] was 0.5. For the same molecule, the Activity [24] was “Non-Toxic”, the inhibition [25] was “Dose-Dependent Effect” and the Activity [26] was 5.65%. It also gave an Activity [27] of 73.41%, an Activity [28] of 7.23% and an Activity [29] of 36.2%. For the same molecule, the Activity [30] was “Active”, the Activity [31] was “Active” and the inhibition [32] was “Active”. The Activity [33] was “Active” and the inhibition [34] was “Dose-Dependent Effect”.
